# Results published in patent publication US12351830B2, “Method for maintaining and amplifying colon cancer stem cells and method for inducing colon cancer organoid” (NATIONAL UNIVERSITY CORPORATION KOBE UNIVERSITY, priority 2017, dated 2025).
# Columns and labels:
# Assay type in all cases: cell-based, human
# 2nd V50-OKS-SW480 cells = assay: 5-FU-chemoresistance analysis; details: 1 and 50 μg/ml 5-FU, 72 hr, relative to cells without 5-FU, n=3
# Experimental: A total of 6×10^4 cells were seeded in 12-well plates with DMEM containing 0, 1, 50 μg/ml of 5-fluorouracil (5-FU, Kyowa Kirin) respectively. After incubation for 72 hr, the cell viability after 5-FU exposure was measured by the Countess (Invitrogen) system.
# NFATc3-GFP = assay: localization of NFATc3-GFP in 2nd V50-OKS cells; details: 2nd V50-OKS cells treated with compound
# Source text: Retroviral vectors separately encoding OCT3/4, SOX2 or KLF4 in pMXs based vectors (pMXs-OCT3/4, pMXs-SOX2, pMXs-KLF4) were obtained from Addgene. Therefore, using these vectors, the polycistronic retroviral vector encoding OCT3/4, KLF4 and SOX2 (pMXs-OKS) was designed. That is, human OCT3/4, KLF4 and SOX2 were amplified by polymerase chain reaction (PCR) with primers containing the 2A sequences of Thosea asigna virus (T2A) and cloned into EcoRI site of pMXs vector using the In-fusion HD cloning system (Clontech). To generate pMXs-NFATc3-GFP construct, NFATc3-GFP cDNA were PCR amplified using HA-NFAT4 (3-407)-GFP (purchased from Addgene #21664) as a template and cloned into EcoRI-Notl site of pMXs-vector).
# Finally, the cellular localization of NFAT after the treatment of FK506, VPA and CHIR in the iCSCs was examined. NFATc3 fused to green fluorescent protein (NFATc3-GFP; Aramburu J, et al., Science, 1999; 285:2129-33, Peuker K, et al., Nat Med, 2016, 22:506-15) was retrovirally introduced into 2nd V50-OKS cells. In the 2nd V50-OKS cells without any compounds and those with FK506, it was observed that NFATc3-GFP localized in the cytoplasm. In contrast, localization of NFATc3-GFP was found in the nuclei of the 2nd V50-OKS cells treated with VPA and CHIR (FIG. 16). […] This is opposite to inhibition of calcineurin via cytoplasm-nuclear translocation of NFAT.
# 2nd V50 cells = assay: colony formation assay; details: 1 mM VPA, 3 μM CHIR or 25 μM FK506, day 12
# Experimental: 2nd VP50 cells produced by 3 independent experiments were seeded in a 6 well plate at a density of 2×10^3 cells/well. The next day, the medium was changed to a medium not added with the compound, or a medium added with 1 mM VPA, 3 μM CHIR or 25 μM FK506. Thereafter, the medium was changed every 2 days or 3 days. On day 12, the cells were fixed with methanol, stained with crystal violet and the colonies were counted using a stereoscopic microscope.
# 2nd V50-OKS cells [1] = assay: flat plane adhesion culture of induced colon cancer stem cells, cell count and morphology; details: for effect in flat plane adhesion culture (morphology, number of cells): VPA 1 mM, CHIR99021 3 μM, 5 days
# Experimental: A human colon cancer cell line (SW480) and Plat-A amphotropic retrovirus packaging cells were obtained from the ATCC collection and Cell Biolabs (San Diego, CA, USA), respectively. Both cells were maintained in Dulbecco's modified Eagle's medium (DMEM) (Nacalai Tesque, Kyoto, Japan) supplemented with 10% fetal bovine serum (FBS) (Life Technologies) and penicillin (100 Units/ml) and streptomycin (100 μg/ml) (Life Technologies) at 37° C. in a humidified 5% […] incubator. In Plat-A culture, 1 μg/ml of puromycin (Nacalai Tesque) and 10 μg/ml of blasticidin (Funakoshi) were added. HUVECs (Lonza) and human MSCs (Lonza) were maintained in endothelial growth medium (Lonza) at 37° C. in a humidified 5% CO2 incubator. The cells were treated with FK506 (Sigma, 25 μM), VPA (WAKO, 1 mM) or CHIR99021 (Funakoshi, 3 μM) for 5 days. Thereafter, the cells were detached from the culture dish by an enzyme treatment, dispersed and the number of the cells was counted with Countess system (Invitrogen). The human induced pluripotent stem (hiPS) cells used as a control were generated from human peripheral blood mononuclear cells in the laboratory.
# Culture of SW480 cells after introduction of reprogramming factor, isolation of induced colon cancer stem cell (hereinafter to be also referred to as “colon iCSC”)-enriched cell population and induction of colon cancer organoid were performed according to the schedule described in FIG. 6. Establishing culture of colon iCSC and sorting of colon iCSC-enriched cell population were performed according to the method described in the above-mentioned non-patent document 3 (flow cytometry utilizing Hoechst33342 eliminating ability in the presence of 50 μM verapamil). Hereinafter colon iCSC-enriched cell population (cell population not labeled with Hoechst33342 in the presence of 50 μM verapamil; V50 cell) obtained by the first sorting is sometimes to be abbreviated as 1st V50 cell (or 1st V50-OKS cell), and the V50 cell obtained by the second sorting is sometimes to be abbreviated as 2nd V50 cell (or 2nd V50-OKS cell). On the other hand, the cell population labeled with Hoechst33342 in the presence of 50 μM verapamil is sometimes to be abbreviated as non V50cell or non V50-OKS cell. Colon cancer organoid was induced by the method described in the below-mentioned sphere formation assay.
# SW480 cells or 2nd V50 cells were subjected to flat plane adhesion culture in the presence of FK506 (Sigma) for 5-15 days, and the cell number was counted with Countess (Invitrogen) system. Alternatively, the cells were subjected to flat plane adhesion culture in the presence of FK506, and then suspension culture in the presence or absence of FK506 to form spheres. The sphere number was counted with Countess (Invitrogen) system. Unless otherwise specified, FK506 was used at a concentration of 25 μM in this Example.
# Duplexed Stealth siRNA (Invitrogen) were used for reference examples and were transduced to the cells according to the manufacturer's protocol.
# 2nd V50-OKS cells [2] = assay: sphere formation assay, induced colon cancer stem cells; details: VPA 1 mM, CHIR99021 3 μM, 10 days
# Experimental: The cells were transferred to Ultra Low Attachment plates (Corning) in serum-free DMEM containing 10 ng/ml bFGF (WAKO), 10 μg/ml human insulin (CST), 100 μg/ml human transferrin (Roche) and 100 μg/ml BSA (Nacalai Tesque), and incubated at 37° C. in a 5% CO2 incubator for 10 days. The sphere count was calculated based on the sphere size which was larger than 100 μm. FK506 (25 μM), VPA (1 mM) or CHIR99021 (3 μM) were added to the medium and the spheres were then treated for 10 days. SW480 cells or 2nd V50 cells were subjected to flat plane adhesion culture in the presence of FK506 (Sigma) for 5-15 days, and the cell number was counted with Countess (Invitrogen) system. Alternatively, the cells were subjected to flat plane adhesion culture in the presence of FK506, and then suspension culture in the presence or absence of FK506 to form spheres. The sphere number was counted with Countess (Invitrogen) system. Unless otherwise specified, FK506 was used at a concentration of 25 μM in this Example.
SMILES,viability of 2nd V50-OKS-SW480 cells in the presence of 5-FU compared with parental SW480 cells (2nd V50-OKS-SW480 cells),cellular localization of NFATc3-GFP (NFATc3-GFP),number of secondary dome-shaped colonies (2nd V50 cells),"effect in flat plane adhesion culture (morphology, number of cells) (2nd V50-OKS cells [1])",sphere forming ability (2nd V50-OKS cells [2]),"effect on the cell number (2nd V50-OKS cells [1]; 2nd V50-OKS cultures, FK506 25 μM, 5 days after passage)","total cell number amplification (2nd V50-OKS cells [1]; 2nd V50 cells adhesion cultured with FK506, 10 days)","total cell number amplification (2nd V50-OKS cells [1]; 2nd V50 cells adhesion cultured with FK506, 15 days)"
"O=c1[nH]cc(F)c(=O)[nH]1 [5-FU, 5-fluorouracil]",significantly higher,,,,,,,
Cc1c[nH]c(-c2cnc(NCCNc3ccc(C#N)cn3)nc2-c2ccc(Cl)cc2Cl)n1 [CHIR99021],,nuclei,decreased,the same effect as siRNA,significantly suppressed,,,
"C=CC[C@@H]1/C=C(\C)C[C@H](C)C[C@H](OC)[C@H]2O[C@@](O)(C(=O)C(=O)N3CCCC[C@H]3C(=O)O[C@H](/C(C)=C/[C@@H]3CC[C@@H](O)[C@H](OC)C3)[C@H](C)[C@@H](O)CC1=O)[C@H](C)C[C@@H]2OC [FK506, FK506 (tacrolimus)]",,,,,,no significant effect,about 100 times,about 1000 times
"CCCC(CCC)C(=O)O [VPA, valproic acid]",,nuclei,decreased,the same effect as siRNA,significantly suppressed,,,
